Measurements published in the supplement of paper PMC10307832.

What was measured:
Experiment in all cases: relative viability (nuclei count vs DMSO), 5 days (fraction); higher = more cells survive
[1] = compound: Cc1nc(NC(=O)N2CCC[C@H]2C(N)=O)sc1-c1ccnc(C(C)(C)C(F)(F)F)c1 [Alpelisib] + CS(=O)(=O)CCNCc1ccc(-c2ccc3ncnc(Nc4ccc(OCc5cccc(F)c5)c(Cl)c4)c3c2)o1 [Lapatinib] (partner 2 µM)
How it was run: (§1)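 Values are medians from duplicate plates. Each reflects relative viability, defined as the nuclei count of treated wells over that of vehicle wells. Lung cancer cell lines in 1536-well plates were pin-tool dosed one day after seeding with one drug alone or with a fixed anchor-drug dose plus five library-drug doses (not always all listed) in √10 steps, then fixed, stained and imaged at 4× after 5 days.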

[2] = compound: COc1cccc2cc(-c3nc([C@H]4CC[C@H](C(=O)O)CC4)n4ncnc(N)c34)[nH]c12 [OSI-027] + CC(C)C[C@H](NC(=O)[C@H](Cc1ccccc1)NC(=O)c1cnccn1)B(O)O [Bortezomib] (partner 0.002 µM)
How it was run: as §1

[3] = compound: CCCS(=O)(=O)Nc1ccc(F)c(C(=O)c2c[nH]c3ncc(-c4ccc(Cl)cc4)cc23)c1F [Vemurafenib] + CC1(C)CCC(c2ccc(Cl)cc2)=C(CN2CCN(c3ccc(C(=O)NS(=O)(=O)c4ccc(N[C@H](CCN5CCOCC5)CSc5ccccc5)c(S(=O)(=O)C(F)(F)F)c4)cc3)CC2)C1 [Navitoclax] (partner 0.5 µM)
How it was run: as §1

[4] = compound: COc1cccc2cc(-c3nc([C@H]4CC[C@H](C(=O)O)CC4)n4ncnc(N)c34)[nH]c12 [OSI-027] + NC(=O)Nc1cc(-c2cccc(F)c2)sc1C(=O)N[C@H]1CCCNC1 [AZD7762] (partner 0.2 µM)
How it was run: as §1

Cell Line | relative viability ([1]; first compound 0.04 µM) | relative viability ([1]; first compound 0.1265 µM) | relative viability ([1]; first compound 0.4 µM) | relative viability ([1]; first compound 1.265 µM) | relative viability ([1]; first compound 4 µM) | relative viability ([2]; first compound 0.01 µM) | relative viability ([2]; first compound 0.03162 µM) | relative viability ([2]; first compound 0.1 µM) | relative viability ([2]; first compound 0.3162 µM) | relative viability ([2]; first compound 1 µM) | relative viability ([3]; first compound 0.03162 µM) | relative viability ([3]; first compound 0.1 µM) | relative viability ([3]; first compound 0.3162 µM) | relative viability ([3]; first compound 1 µM) | relative viability ([4]; first compound 0.01 µM) | relative viability ([4]; first compound 0.03162 µM) | relative viability ([4]; first compound 0.1 µM) | relative viability ([4]; first compound 0.3162 µM) | relative viability ([4]; first compound 1 µM)
LCLC-97TM1 | 0.75 | 0.854 | 0.656 | 0.686 | 0.387 | 0.271 | 0.554 | 0.369 | 0.154 | 0.193 | 0.411 | 0.371 | 0.533 | 0.486 | 0.245 | 0.301 | 0.371 | 0.276 | 0.18
LOU-NH91 | 0.767 | 0.597 | 0.632 | 0.511 | 0.522 | 0.452 | 0.486 | 0.473 | 0.546 | 0.455 | 0.698 | 0.369 | – | 0.759 | 0.762 | 0.702 | 0.667 | 0.597 | 0.482
LU99A | 0.873 | 0.917 | 1.02 | 0.666 | 0.56 | 1.11 | 0.967 | 0.981 | 0.604 | 0.252 | 0.714 | 0.752 | 0.869 | 0.796 | 0.462 | 0.321 | 0.28 | 0.133 | 0.171
LXF-289 | 0.865 | 0.921 | 0.958 | 0.832 | 0.956 | 1.03 | 1.05 | 1.05 | 0.984 | 0.837 | 0.853 | 0.883 | 0.951 | 1.03 | 1.06 | 1.02 | 1.23 | 1.15 | 0.959
NCI-H23 | 1.09 | 0.845 | 1.04 | 0.621 | 0.839 | 0.967 | 0.834 | 0.944 | 1.02 | 0.656 | 0.894 | 0.9 | 0.888 | 0.796 | 0.231 | 0.259 | 0.26 | 0.253 | 0.215
NCI-H322M | 0.535 | 0.666 | 0.518 | 0.361 | 0.423 | 1.23 | 1.24 | 1.13 | 0.983 | 0.986 | 1.09 | – | 1.44 | 1.1 | 0.621 | 0.61 | 0.481 | 0.427 | 0.419
NCI-H460 | 1.02 | 0.948 | 1.03 | 0.662 | 0.439 | 1.41 | 1.14 | 0.862 | 0.94 | 0.139 | 1.17 | 1.14 | 1.02 | 1.07 | 0.731 | 0.668 | 0.473 | 0.548 | 0.336
NCI-H596 | 0.98 | 1.02 | 0.825 | 0.54 | 0.413 | 0.869 | 1.02 | 0.884 | 0.897 | 0.892 | 0.93 | 0.728 | 1.04 | 0.842 | 1.14 | 1.08 | 1.08 | 1.06 | 0.943
